The nature of series [1]: Hydrodynamic diameter of complexes by dynamic light scattering (DLS). It counts as physicochemical. The method, then:
Sizes of complexes described in the present examples were analyzed by DynaPro PlateReader II, using dynamic light scattering (DLS) for calculating the hydrodynamic diameter of complexes. The formulations are measured by diluting the sample to 0.0125 mg/mL RNA in 120 μl of MGB (10 mM MES, pH 6.1, 5% D-Glucose) 5% in wells of a 96-well plate. Ten acquisitions are recorded per well, each lasting 5 seconds.

The next series has as its system female BALB/c mice. Description: In-vivo luciferase expression (bioluminescence) in applied tissue after i.m. injection of formulated modRNA or saRNA. Conditions: modRNA i.m., N/P 6. How it is done: Eighteen female BALB/c mice were divided into […] study groups. All groups received the same amount of formulated luciferase encoding modRNA or saRNA (1 μg), applied i.m. to each leg. At […] time points (6 hours, 24 hours, 72 hours, 6 days, 8 days, 20 days), in-vivo luciferase expression in applied tissue was measured. Three modRNA groups were formulated with JRL13 at three different N/P Ratios (1, 6, or 12) and three saRNA groups were formulated with JRL13 at three different N/P Ratios (either 1, 6 or 12). N/P ratio is calculated based on the JRL13-RNA charges ratio, as described herein. […] FIG. 4C is a bar graph illustrating quantified bioluminescence over the duration of the experiment for example compositions having indicated N/P ratios comprising modRNA and JRL13. FIG. 4D is a bar graph illustrating quantified bioluminescence over the duration of the experiment for example compositions having indicated N/P ratios comprising saRNA and JRL13.
The present example examines the impact of different cationic groups on intramuscular delivery of saRNA. […] At six time points (6 hours, 24 hours, 72 hours, 6 days, 9 days, 20 days), in-vivo luciferase expression in applied tissue was measured. […] FIG. 5B is a bar graph illustrating quantified bioluminescence over the duration of the experiment and normalized to the JRL13-saRNA group. […]

For series [2], the system named is Hemagglutinin (HA) protein of the influenza strain California/7/2009. Description: Anti-Influenza HA IgG in serum by enzyme-linked immunosorbent assay after i.m. vaccination. Type of series: in vivo. Conditions: for IgG concentration against HA: oligosaccharide + Tween40 1:0.5, HA modRNA 0.5 μg i.m. prime/boost day 0/day 28, N/P6.
For another series, the system named is Influenza HA peptides. Description: CD4/CD8 T-Cell response to Influenza HA peptides by IFN-ELISPOT of splenocytes after i.m. vaccination. Type of series: in vivo, influenza strain California/7/2009. Conditions: JLF99 + Tween20 1:0.5, HA modRNA 1 μg i.m. prime/boost d0/d28, N/P 6.
The next series has as its system Influenza. Description: Virus neutralizing titers by VNT Assay after i.m. vaccination. It counts as in vivo, influenza strain California/7/2009. Conditions: JLF99 + Tween20 1:0.5, HA modRNA 1 μg i.m. prime/boost d0/d28, N/P 6. The source says: The animals were subjected to non-invasive serological surveillance over 49 days at different time points (day 0, day 14, day 21, day 28, day 49) and spleen was extracted at the end of the experiment for quantification of CD4/CD8 T-Cell response to Influenza HA peptides. Anti-Influenza HA antibodies in serum were quantified by enzyme-linked immunosorbent assay. Virus neutralizing titers were quantified by VNT Assay. CD4/CD8 T-Cell response was quantified by via IFN-ELISPOT of Splenocytes. FIG. 16A illustrates serological levels of specific IgG against HA over the course of the experiment. FIG. 16B illustrates Influenza specific neutralizing titers over the course of the experiment. FIG. 16C illustrates end-point titration of the serological levels of specific IgG against HA. FIG. 16D illustrates the CD8/CD4 response against HA-peptide pools.

The subject of the next series is hPBMCs. Description: Pro-inflammatory cytokine secretion by hPBMCs 24 hours after transfection (MSD Kit). Type of series: cell-based, human. Conditions: for Level of secretion of pro-inflammatory cytokines, IL-6, TNF-α, IL-1 and IFN-γ: oligosaccharide + Tween40 1:0.5, modRNA N/P 6, 24 hours, 10^6 hPBMCs. How it is done:
All groups received modRNA formulated at N/P 6. Formulations were complexed with RNA in MBG Buffer (final concentration 5% w/v Glucose, 10 mM MES, pH 6.1), at RNA final concentration of 0.15 mg/ml and the mixing ratio of the RNA containing solution and the oligosaccharide+Tween40 containing solution was 9:1 (v:v) for all the cases. IL-6, TNF-α, IL-1p and IFN-γ secretion after 24 hours of transfection of 10^6 hPMBCs was evaluated in the supernatants using MSD Kit Standard Protocol.
FIG. 19A is a plot illustrating IL-6 secretion by hPBMCs upon exposure to different doses of tested formulations. FIG. 19B is a plot illustrating TNF-α secretion by hPBMCs upon exposure to different doses of tested formulations. FIG. 19C is a plot illustrating IL-1p secretion by hPBMCs upon exposure to different doses of tested formulations. FIG. 19D is a plot illustrating IFN-γ secretion by hPBMCs upon exposure to different doses of tested formulations. In the second part of the experiment, the same tested formulations were used in a vaccination study.

In series [3] the test system is Glycoprotein (Gc) of the Crimean-Congo Hemorrhagic Fever Virus (CCHFV). It counts as in vivo.
The next series deals with CCHFV-Gc peptides. Type of series: in vivo, Crimean-Congo Hemorrhagic Fever Virus. The settings on record: JLF99 + Tween40 1:0.5, Gc saRNA 1.3 μg i.m. prime/boost, C57BL/6 IFNAR −/− mice.
Where [4] appears, read: JLF99 + Tween20 1:0.5, HA modRNA 1 μg i.m. prime/boost d0/d28, N/P 6.

With `CCCCCCCCCC(=O)OC1C(OC(=O)CCCCCCCCC)[C@H](OC(=O)CCCCCCCCC)C(CSCCNC(=S)NCCN(C)C)O[C@@H]1O[C@H]1OC(CSCCNC(=S)NCCN(C)C)[C@@H](OC(=O)CCCCCCCCC)C(OC(=O)CCCCCCCCC)C1OC(=O)CCCCCCCCC` (stereo partly drawn) [JLF41], the “Difference in particle size between N/P 1 and N/P 6” value in series [1] (modRNA) is given as “greater difference”.
Regarding `CCCCCCCCCC(=O)OC1C(OC(=O)CCCCCCCCC)[C@H](OC(=O)CCCCCCCCC)C(CSCCNC(=S)NCCN2CCOCC2)O[C@@H]1O[C@H]1OC(CSCCNC(=S)NCCN2CCOCC2)[C@@H](OC(=O)CCCCCCCCC)C(OC(=O)CCCCCCCCC)C1OC(=O)CCCCCCCCC` (stereo partly drawn) [JLF99], the Hydrodynamic diameter entry in series [1] (saRNA, N/P 6) is recorded as “about 150 nm”. Moreover, in the series with female BALB/c mice, the “modRNA expression (bioluminescence normalized to the JLF41-modRNA group)” value is “promising modRNA expression”. In addition, in series [2] (setting [4]), the “IgG against HA-antigen over the course of the experiment versus LNP benchmark” value is recorded as “no apparent differences” and the “Serological concentration of IgG at the end-point (day 49)” value is on record as “comparable to the LNP group”. In addition, the “Delivery of and immune response to different RNA platforms” value in series [2] (JLF99 + Tween20 1:0.5, taRNA, saRNA or modRNA 1 μg i.m. prime/boost, N/P 6) is “functionally delivered all the RNAs upon i.m injection and elicited a strong immune response”. For the same compound, the “IgG concentration against HA” value in series [2] was “then by JLF99 and JLF218”. Moreover, in the series with Influenza HA peptides, the “CD4-CD8 response versus LNP benchmark” value is “no significant difference”. In the series on Influenza, the “Virus neutralizing titers versus LNP benchmark” value was “same findings”. Moreover, in the series with hPBMCs (oligosaccharide + Tween40 1:0.5, modRNA N/P 6), the Adjuvanticity entry is “strong adjuvanticity”. The “Immunological response to low immunogenic antigen CCHFV-Gc” value in series [3] (JLF99 + Tween40 1:0.5, Gc saRNA 1.3 μg i.m. prime/boost d0/d28, N/P6, C57BL/6 IFNAR −/− mice) was “strong immunological response”. Moreover, the “Antibody levels versus LNP benchmark” value in series [3] (after d28 (prior boost), JLF99 + Tween40 1:0.5, Gc saRNA 1.3 μg i.m., C57BL/6 IFNAR −/− mice) is given as “identical to the ones achieved by the LNP benchmark”. In addition, the “Antibody level versus LNP benchmark” value in series [3] (d14, JLF99 + Tween40 1:0.5, Gc saRNA 1.3 μg i.m., C57BL/6 IFNAR −/− mice) is given as “lower than the LNP”. Moreover, the “T-cell responses against Gc-peptides versus LNP benchmark” value in the series with CCHFV-Gc peptides is reported as “equally strong”.
`CCCCCCCCCC(=O)OC1C(OC(=O)CCCCCCCCC)[C@H](OC(=O)CCCCCCCCC)C(CSCCNC(=S)NCCn2ccnc2)O[C@@H]1O[C@H]1OC(CSCCNC(=S)NCCn2ccnc2)[C@@H](OC(=O)CCCCCCCCC)C(OC(=O)CCCCCCCCC)C1OC(=O)CCCCCCCCC` (stereo partly drawn) [JLF110]: the “Level of secretion of pro-inflammatory cytokines, IL-6, TNF-α, IL-1 and IFN-γ” value in the series with hPBMCs was “medium levels of secretion”.
Take `CCCCCCCCCC(=O)OC[C@@]1(O[C@H]2OC(CSCCNC(=S)NCCN3CCOCC3)[C@@H](OC(=O)CCCCCCCCC)C(OC(=O)CCCCCCCCC)C2OC(=O)CCCCCCCCC)O[C@H](CSCCNC(=S)NCCN2CCOCC2)[C@@H](OC(=O)CCCCCCCCC)[C@@H]1OC(=O)CCCCCCCCC` (stereo partly drawn) [JLF218]: the “IgG concentration against HA” value in series [2] was “then by JLF99 and JLF218”.
For `CCCCCCCCCC(=O)OC1C(OC(=O)CCCCCCCCC)[C@H](OC(=O)CCCCCCCCC)C(CSCCNC(=S)NCCN2CCC(C(N)=O)CC2)O[C@@H]1O[C@H]1OC(CSCCNC(=S)NCCN2CCC(C(N)=O)CC2)[C@@H](OC(=O)CCCCCCCCC)C(OC(=O)CCCCCCCCC)C1OC(=O)CCCCCCCCC` (stereo partly drawn) [JLF244], the “IgG concentration against HA” value in series [2] is recorded as “highest IgG concentration”. In addition, the “Level of secretion of pro-inflammatory cytokines, IL-6, TNF-α, IL-1 and IFN-γ” value with hPBMCs is given as “highest level of secretion”.

The values above are taken from patent US20240425541A1, “OLIGOSACCHARIDE COMPOUNDS AND COMPLEXES” (priority 2021, published 2024).
